For test [1], the system named is monocytes. In words: Effect of enzyme inhibitors on peptide-induced monocyte chemotaxis. The test is classed as cell-based, human. To be noted: FIG. 10; for inhibition of MFYLPM-induced chemotaxis: 1 μM MFYLPM. As to the method:
(§1) Chemotaxis assays of the peptide were performed using multiwell chambers (Neuroprobe Inc., Gaithersburg, Md.) (20). Briefly, the prepared isolated human monocytes were suspended in RPMI at a concentration of 1×10^6 cells/ml of serum-free RPMI, and 25 □ of the suspension were placed onto the upper well of a 96-well chemotaxis chamber that was separated by a […] filter with a 5 □ pore size (3 □ diameter pores not coated with polyvinylpyrrolidone for neutrophils) from peptides or an fMLF-containing lower well. After incubation for 2 hours (90 minutes for neutrophils) at 37° C., non-migrated cells were removed by scraping them out, and cells that migrated across the filter were dehydrated, fixed, and stained with hematoxylin (Sigma, St. Louis, Mo.). The stained cells in five randomly chosen high power fields (HPF) (400×) in that well were then counted (21). The numbers of migrated cells were determined by counting them in a high power field (400×). For a checkboard analysis, cells were re-suspended in RPMI containing various concentrations of the peptide just before transferring them to the upper wells as described before (22).
Monocytes were pretreated either with LY (LY294002, 50 μM), GFX (GF109203X, 5 μM), or PD (PD98059, 50 μM), or they remained untreated for the control After an incubation of the indicated periods (15 minutes for LY294002 and GF109203X, 60 minutes for PD98059), the cells were washed twice and used for chemotaxis assay. 25 □ of monocytes at 1×10^6 cells/ml were added to the upper wells and allowed to migrate for 2 hrs at 37° C. (humidified atmosphere; 5% CO2) toward each peptide (1 μM HFYLPM, 1 μM MFYLPM, or 10 nM HFYLPm) or medium. After fixing and staining of the membrane, the numbers of migrated cells were determined by counting them in a high power field (400×). The results are shown FIG. 10. The data are presented as means ±S.E. of three independent experiments each performed in duplicate. *P<0.01 versus medium treatment and †P<0.01 versus peptide treatment, respectively.

Test [2] has as its system monocytes. As to the kind of experiment: Effect of PTX on peptide-induced chemotactic migration in monocytes. The test is classed as cell-based, human. As to conditions: FIG. 8, PTX preincubation 90 minutes. As for the experimental part: as §1
Several extracellular signals including many chemoattractants activate phagocytic cells via pertussis toxin (PTX)-sensitive G-protein(s) (27-29). Therefore, the involvement of PTX-sensitive G-protein(s) on the peptide-induced monocyte activation was examined. Monocytes were preincubated with PTX (1 □/ml) or vehicle only for 90 minutes at 37° C. The cells were used for chemotaxis assay with HFYLPM (1 μM), MFYLPM (1 μM), HFYLPm (100 nM), and fMLF (100 nM). The numbers of migrated cells were determined by counting them in a high power field (400×). The results are illustrated in FIG. 8. The data of FIG. 8 are presented as means±S.E. of two independent experiments each performed in duplicate. *P<0.01 versus medium treatment and †P<0.01 versus peptide treatment, respectively.

The mark [3] stands for this setting: LY294002 50 μM, GF109203X 5 μM, PD98059 50 μM, 10 nM HFYLPm.
Where [4] appears, read: LY294002 50 μM, GF109203X 5 μM, PD98059 50 μM.

The results in this text go back to patent US7390870B2, “Immune-enhancing peptides” (Posco, priority 2001, dated 2008).

As for `CN(C)CCCn1cc(C2=C(c3c[nH]c4ccccc34)C(=O)NC2=O)c2ccccc21` [GF109203X], the “inhibition of HFYLPm-induced chemotaxis” value is ~50% in the test on monocytes [1] (LY294002 50 μM, GF109203X 5 μM, 15 minutes pretreatment, 1 μM HFYLPM) and “no effect” with monocytes [1] (setting [3]). For the same compound, the “inhibition of MFYLPM-induced chemotaxis” value in the test with monocytes [1] (setting [4]) was “no effect”.
For orientation: inhibition means the drop in the measured response relative to a control, in per cent. For `O=c1cc(N2CCOCC2)oc2c(-c3ccccc3)cccc12` [LY294002], the “inhibition of HFYLPm-induced chemotaxis” value with monocytes [1] (setting [3]) is “no effect”. Also, in the test on monocytes [1] (setting [4]), the “inhibition of MFYLPM-induced chemotaxis” value is listed as “no effect”. Moreover, the inhibition at 50 µM in the test with monocytes [1] (Homo sapiens, Monocyte, LY294002 50 μM, GF109203X 5 μM, 15 minutes pretreatment, 1 μM HFYLPM) was ~75%.
`COc1cccc(-c2cc(=O)c3ccccc3o2)c1N` [PD98059]: the “inhibition of HFYLPm-induced chemotaxis” value in the test with monocytes [1] (setting [3]) is on record as “almost complete inhibition”; in the test with monocytes [1] (PD98059 50 μM, 60 minutes pretreatment, 1 μM HFYLPM), “almost complete inhibition”. In addition, the “inhibition of MFYLPM-induced chemotaxis” value in the test with monocytes [1] (setting [4]) was “almost complete inhibition”.
Consider pertussis toxin [PTX], for which the “inhibition of HFYLPm-induced monocyte chemotaxis” value with monocytes [2] (HFYLPM 1 μM) and with monocytes [2] (HFYLPm 100 nM) was “complete inhibition” in each case. Besides, the “inhibition of MFYLPM-induced monocyte chemotaxis” value with monocytes [2] (MFYLPM 1 μM) was “complete inhibition”. In addition, the “inhibition of fMLF-induced monocyte chemotaxis” value in the test on monocytes [2] (fMLF 100 nM) is given as “completely blocked”.
